From patent EP4793274A1, “SALT AND CRYSTAL FORM OF KIF18A INHIBITOR COMPOUND, PREPARATION METHOD THEREFOR AND USE THEREOF” (Hubei Bio-Pharmaceutical Industrial Technological Institute …, priority 2023, dated 2025)

Key:
Format in all cases: physicochemical
[1] = Dynamic solubility at 37 °C in H2O, SGF, FaSSIF and FeSSIF (HPLC concentration, pH of filtrate, XRPD of residual solid); details: for S: solubility: feeding concentration 10 mg/mL; for FC: crystal form change: XRPD of residual solid; for pH: pH of filtrate
Procedure: 0.82 mL of glacial acetic acid and 1.18 g of NaCl were added to a 100 mL volumetric flask and completely dissolved by addition of purified water.
The solubility of each sample in H2O, SGF, FaSSIF, and FeSSIF was determined at different time points (1 h, 2 h, 4 h, and 24 h). […] 137-156. […] Table C-2. Summary of dynamic solubility test results at 37 °C

[2] = Hygroscopicity by dynamic vapor sorption (DVS)
Procedure: Dynamic vapor sorption (DVS) curves were acquired on a DVS IntrInsic from Surface Measurement Systems (SMS). The relative humidity at 25 °C was corrected with the deliquescence points of LiCl, Mg(NO3)2, and KCl. Table A-5. DVS test parameters
The percentage changes in mass of the samples when the humidity changed (0% RH to 95% RH) at a constant temperature of 25 °C were collected. 157-166.

[3] = Solid state stability (XRPD and HPLC purity); details: 80 °C/sealed condition for 1 day
Description: 167-171. […] Table C-3. Summary of solid state stability evaluation

Cc1cc(-c2cnn(-c3ccc(NS(=O)(=O)CCO)cc3N3CCC4(CC3)CC4)c2)nc(N2CCC(F)(F)CC2)n1 [free crystal form D]
S: solubility ([1]; FaSSIF, 1 h, 60 min): 6.5 µg/mL | S: solubility ([1]; FaSSIF, 2 h, 120 min): 6.5 µg/mL | S: solubility ([1]; FaSSIF, 4 h, 240 min): 6.3 µg/mL | S: solubility ([1]; FaSSIF, 24 h, 1440 min): 5 µg/mL | S: solubility ([1]; FeSSIF, 1 h, 60 min): 16.2 µg/mL | S: solubility ([1]; FeSSIF, 2 h, 120 min): 17.2 µg/mL | S: solubility ([1]; FeSSIF, 4 h, 240 min): 15.4 µg/mL | S: solubility ([1]; FeSSIF, 24 h, 1440 min): 15 µg/mL | S: solubility ([1]; H2O, 1 h, 60 min): 0.1 µg/mL | S: solubility ([1]; H2O, 2 h, 120 min): 0.1 µg/mL | S: solubility ([1]; H2O, 4 h, 240 min): 0.2 µg/mL | S: solubility ([1]; SGF, 1 h, 60 min): 6.2 µg/mL | S: solubility ([1]; SGF, 2 h, 120 min): 5.7 µg/mL | S: solubility ([1]; SGF, 4 h, 240 min): 5.9 µg/mL | S: solubility ([1]; SGF, 24 h, 1440 min): 5.1 µg/mL | FC: crystal form change ([1]; FaSSIF, 1 h): No | FC: crystal form change ([1]; FaSSIF, 2 h): No | FC: crystal form change ([1]; FaSSIF, 4 h): No | FC: crystal form change ([1]; FaSSIF, 24 h): No | FC: crystal form change ([1]; FeSSIF, 1 h): No | FC: crystal form change ([1]; FeSSIF, 2 h): No | FC: crystal form change ([1]; FeSSIF, 4 h): No | FC: crystal form change ([1]; FeSSIF, 24 h): No | FC: crystal form change ([1]; H2O, 1 h): No | FC: crystal form change ([1]; H2O, 2 h): No | FC: crystal form change ([1]; H2O, 4 h): No | FC: crystal form change ([1]; H2O, 24 h): No | FC: crystal form change ([1]; SGF, 1 h): No | FC: crystal form change ([1]; SGF, 2 h): No | FC: crystal form change ([1]; SGF, 4 h): No | FC: crystal form change ([1]; SGF, 24 h): No | pH ([1]; FaSSIF, 1 h): 6.51 | pH ([1]; FaSSIF, 2 h): 6.53 | pH ([1]; FaSSIF, 4 h): 6.55 | pH ([1]; FaSSIF, 24 h): 6.49 | pH ([1]; FeSSIF, 1 h): 4.97 | pH ([1]; FeSSIF, 2 h): 5.01 | pH ([1]; FeSSIF, 4 h): 4.97 | pH ([1]; FeSSIF, 24 h): 4.96 | pH ([1]; H2O, 1 h): 6.91 | pH ([1]; H2O, 2 h): 7.64 | pH ([1]; H2O, 4 h): 7.88 | pH ([1]; H2O, 24 h): 7.65 | pH ([1]; SGF, 1 h): 1.26 | pH ([1]; SGF, 2 h): 1.38 | pH ([1]; SGF, 4 h): 1.29 | pH ([1]; SGF, 24 h): 1.32 | crystal form after the DVS test (XRPD) ([2]; 25 °C, 0% RH to 95% RH): converted to the free crystal forms D + J | vapor sorption values ([2]; 25 °C/80% RH): 3.129% | crystal form after the stability test (XRPD) [3]: converted to the free crystal forms J + D
